Experimental data taken from patent publication US20210115071A1, “NANOSCALE METAL-ORGANIC FRAMEWORKS FOR ENHANCED TUMOR CHEMORADIATION” (Oregon State University, priority 2019, published 2021).

How the values were obtained:
[1] = Drug loading / encapsulation efficiency in Hf-BDC-PEG by HPLC; type: physicochemical; settings: loaded into Hf-BDC-PEG
Experimental: (§1) Talazoparib and buparlisib were loaded into the Hf-BDC-PEG nMOFs by directly adding aliquots of the dissolved drugs (10 mg/mL in DMSO) at the desired concentrations into distilled water (2 mL) with the Hf-BDC-PEG nMOFs (approximately 5.0 mg) and stirred overnight. Unloaded drug(s) were removed by centrifugation and the supernatant was collected and quantified on HPLC to determine the concentration of unloaded talazoparib and buparlisib. A calibration curve for talazoparib and buparlisib was obtained using standard solutions at different concentrations and the curve was fitted with linear regression. Encapsulation efficiency was determined based on the ratio of the amount of drug loaded in Hf-BDC-PEG to the total amount added. The resulting nMOFs were dried under vacuum and stored until use. The influence of pH on drug release of talazoparib and buparlisib from the Hf-BDC-PEG nMOF was investigated using dialysis. TB@Hf-MOF (1.6 mg, 500 μL) was loaded into Slide-A-Lyzer MINI dialysis microtubes with a molecular weight cutoff of 2,000. The loaded samples were dialyzed against 12 mL of buffer (pH 5.5 or 7.4 PBS) with gentle stirring under ambient conditions. At designated time points of 0, 1, 2, 4, 24, 48, 72, 168, and 336 hours, sink samples (6 mL) were collected and replaced with fresh solution. Talazoparib and buparlisib concentrations were determined via HPLC, and drug release profiles were plotted as cumulative % of total drug release vs. time. All drug release measurements were performed in triplicate.

4T1 cells = settings: free drug, previously reported by the inventors; read-out: individual agent IC50; cited from earlier work
[2] = Drug release from TB@Hf-BDC-PEG by dialysis; type: physicochemical; settings: 25° C.
Experimental: as §1, with “Unloaded” for “Talazoparib and buparlisib were loaded into the Hf-BDC-PEG nMOFs by directly adding aliquots of the dissolved drugs (10 mg/mL in DMSO) at the desired concentrations into distilled water (2 mL) with the Hf-BDC-PEG nMOFs (approximately 5.0 mg) and stirred overnight. Unloaded”

[3] = cited from earlier work
CT26.wt cells = experiment: Free drug cytotoxicity and combination index; type: cell-based, Murine; settings: for IC50 decrease in combination vs individual drug: 30:1 TMZ:Tal; for IC50: Mus musculus, CT26.WT, 72 hrs, combination as overall concentration
Experimental: Free drug cytotoxicity was investigated with Tal and TMZ as individual and combination agents. To determine the optimal TMZ:Tal ratio, CT26.wt cells were plated at 4×10^3 cells per well in a 96-well plate and allowed to settle overnight. Cells were then treated with TMZ (0, 10, 30, 150, 300, 600 or 1000 μM), Tal (0, 1, 5, 10, or 100 μM), or TMZ:Tal at each of the concentrations combined (ratios ranging from 1000:1 to 1:10) and incubated for 72 hrs. Combination indexes (CIs) were determined for all combinations (including only those points on the curve with Fa values between 0.1 and 0.9) using CompuSyn (ComboSyn Inc., Paramus, N.J., USA).

[4] = Drug loading of Hf-BDC nMOF (encapsulation efficiency); type: physicochemical; settings: loaded in Hf-BDC nMOF
Experimental: nMOFs were suspended in either 18 MΩ water (generation 1) or methanol (generation 2) at 5 mg/mL depending on colloidal stability. nMOF redispersed in water at 5 mg/mL was combined with fucoidan or dextran (both at 1 mg/mL in 18 MΩ water) at a 1:1 v/v ratio, sonicated for 1 hour, and filtered. nMOF redispersed in methanol at 5 mg/mL was combined with fucoidan or dextran (both at 1 mg/mL in 18 MΩ water) at a 1:1 v/v ratio, sonicated for 15 mins and stirred open overnight. After evaporation nMOFs were redispersed to 2.5 mg/mL nMOF in water and subsequently filtered. For drug loading, all steps remained the same except that drug dissolved in DMSO (Tal and/or TMZ or Cyanine 7.5) was added to the nMOF in water or methanol, sonicated for one hour, and washed by centrifuge twice (collecting the supernatant for quantification) before continuing with either surface coating procedure.

| SMILES | Encapsulation efficiency (EE %) [1] | IC50 (4T1 cells) | drug released within the first 24 hours ([2]; pH 5.5, PBS) | drug release after two weeks incubation ([2]; pH 7.5, PBS) | drug released within the first 24 hours ([2]; pH 7.5, PBS) | log P [3] | IC50 decrease in combination vs individual drug (CT26.wt cells) | IC50 (CT26.wt cells) | average encapsulation efficiencies (EE) [4] |
| --- | --- | --- | --- | --- | --- | --- | --- | --- | --- |
| Nc1cc(C(F)(F)F)c(-c2cc(N3CCOCC3)nc(N3CCOCC3)n2)cn1 [buparlisib] | 14% | 4.7 µM | ~37% | ~100% | 24% | 2.13 | – | – | – |
| Cn1nnc2c(C(N)=O)ncn2c1=O [TMZ, temozolomide] | – | – | – | – | – | – | 3.3 fold | 34 µM | – |
| C[N+]1=C(C=CC2=CC(=CC=C3N(CCCCCC(=O)O)c4ccc5ccccc5c4C3(C)C)CCC2)C(C)(C)c2c1ccc1ccccc21.[Cl-] [Cy 7.5, cyanine 7.5 carboxylic acid] | approximately 98% | – | – | – | – | – | – | – | – |
| Cn1ncnc1[C@H]1c2n[nH]c(=O)c3cc(F)cc(c23)N[C@@H]1c1ccc(F)cc1 [talazoparib] | 77% | 1.4 µM | approximately 21% | approximately 85% | 11% | 2.93 | 14.6 fold | 5.1 µM | 54% |
